Patent US20190262457A1, “NOVEL ALKYLATING AGENT” (CHIBA-PREFECTURE, priority 2016, published 2019)
Read-outs that look alike come from different tables or passages of the source.

Experiments:
[1] = known log-P of calibration compounds; cited from earlier work
PD-L1 gene = experiment: Experiment to silence PD-L1 gene by real-time PCR, CCC07-03; type: cell-based, human
Procedure: (§1) RKO cells were cultured at 1×10^5 cells/well in a 6-well plate. On the next day, the cells were treated with 0, 5, 50, or 500 nM CCC07-03 for 6 hours, 24 hours, or 48 hours. The cells were recovered, and total RNA was extracted therefrom. The extraction employed AllPrep DNA/RNA Mini Kit (Qiagen N.V., CA). Next, cDNA was prepared by reverse transcription with the extracted RNA as a template using Super Script VILO™ Master Mix (Invitrogen Corp., CA) and subjected to qPCR. The qPCR conditions involved a holding stage at 50° C. for 2 min and 95° C. for 10 min, a cycling stage (40 cycles) at 95° C. for 15 sec and at 60° C. for 1 min, and a melt curve stage at 95° C. for 15 sec, at 60° C. for 1 min, at 95° C. for 30 sec, and at 60° C. for 15 sec. A relative expression level was quantified with GAPDH as a control. The PCR of PD-L1 employed the following primer set.

CTLA4 gene [2] = experiment: Experiment to silence CTLA4 gene by real-time PCR, CCC07-03; type: cell-based, human; conditions: A2058 cells
Procedure: as §1, with “A2058” for “RKO”, “GAPDH (primers: SEQ ID NOs: 21 and 22)” for “GAPDH”, “CTLA4” for “PD-L1”

RKO cells = experiment: Cytotoxicity and IC50 comparison with CBI by WST assay, 48 hours; type: cell-based, human; conditions: Homo sapiens, WST-8
Procedure: (§2) From the cell lines mentioned above, a large intestine cancer cell line SW480 was used as cells expressing PD-1, and a large intestine cancer cell line RKO was used as cells expressing PD-L1. An experiment was conducted to compare toxicity and IC50 between the PIP-drug conjugate compound CCC07-01 and the alkylating agent CBI used as a drug conjugate therein. The cells of each line were inoculated at 3000 cells/well to a 96-well microplate and cultured overnight. On the next day, the cells were treated with the PIP-CBI conjugate (CCC07-01) or CBI having a concentration of 0.1, 1, 10, 30, 100, 300, or 1000 nM (1 μM) for 48 hours. Then, WST-8 reagent was added to each well using Cell counting kit-8, and the mixture was reacted for 2 hours. Then, the cell count was calculated at a wavelength of 450 nm by the colorimetric analysis method using a microplate reader. The method for calculating the cell count involved: 1) obtaining the mean value of a medium alone, 2) subtracting the mean value of the medium from each well, 3) obtaining the mean value of DMSO, 4) dividing the medium mean value-subtracted value by the mean value of DMSO and then multiplying by 100, and 5) obtaining the mean value of each treatment group and a standard deviation, and preparing a graph. IC50 was calculated according to the following expression: IC50=10(LOG(A/B)×(50−C)/(D−C)+LOG(B) wherein A: a higher concentration of two concentrations sandwiching 50%, B: a lower concentration of two concentrations sandwiching 50%, C: the rate of inhibition at B, and D: the rate of inhibition at A.

SW480 cells = experiment: as above; type: cell-based, human; conditions: Homo sapiens, WST-8
Procedure: as §2

CTLA4 gene [3] = experiment: Study on CTLA4 gene silencing by negative control polyamide CCC07-04; type: cell-based, human; conditions: A2058 cells
Procedure: as §1, with “A2058” for “RKO”, “CCC07-04” for “CCC07-03”, “GAPDH (primers: SEQ ID NOs: 21 and 22)” for “GAPDH”, “CTLA4” for “PD-L1”

mouse Pd-11 gene = experiment: Experiment to silence mouse Pd-11 gene by real-time PCR; type: cell-based; conditions: B16F1 cells
Procedure: as §1, with “B16F1” for “RKO”, “100, 200, 300, 400,” for “5, 50,”, “CCC07-04” for “CCC07-03”, “(3-tubulin” for “GAPDH”, “Pd-11” for “PD-L1”

[4] = known log-P of calibration compounds; cited from earlier work; remark: listed apart in the source
malignant melanoma = conditions: phase III clinical trial; cited from earlier work
[5] = 24 hours or later after administration

Compound: N#Cc1ccccc1 [Benzonitrile]
- logPow [1]: 1.56

Compound: CC(=O)Nc1cn(C)c(C(=O)Nc2cn(C)c(C(=O)Nc3cc(C(=O)NCCC(=O)Nc4cn(C)c(C(=O)Nc5cc(C(=O)Nc6cc(C(=O)NCCCC(=O)Nc7cn(C)c(C(=O)Nc8cn(C)c(C(=O)Nc9cc(C(=O)NCCC(=O)Nc%10cc(C(=O)Nc%11ccc%12[nH]c(C(=O)N%13CC(CCl)c%14c%13cc(O)c%13ccccc%14%13)cc%12c%11)n(C)c%10)n(C)c9)n8)n7)n(C)c6)n(C)c5)n4)n(C)c3)n2)n1 (stereo not shown) [CCC07-03]
- expression of PD-L1 (PD-L1 gene; RKO cells, 50 nM, 24 hours): statistically significantly decreased
- expression of PD-L1 (PD-L1 gene; RKO cells, 500 nM, 6 hours): tended to be decreased
- expression of PD-L1 (PD-L1 gene; RKO cells, 5, 50, 500 nM, 48 hours): decreased according to the concentration
- expression of CTLA-4 (CTLA4 gene [2]; 500 nM, 24 hours): markedly decreased
- expression of CTLA-4 (CTLA4 gene [2]; 6 hours): elevated

Compound: Oc1cc2c(c3ccccc13)C(CCl)CN2 (stereo not shown) [CBI, 1-chloromethyl-5-hydroxy-1,2-dihydro-3H-benzo [e]indole, reference compound]
- IC50 (RKO cells): 3 nM
- IC50 (SW480 cells): 10 nM

Compound: CC(=O)Nc1cn(C)c(C(=O)Nc2cn(C)c(C(=O)Nc3cc(C(=O)NCCC(=O)Nc4cc(C(=O)Nc5cn(C)c(C(=O)Nc6cn(C)c(C(=O)NCCCC(=O)Nc7cc(C(=O)Nc8cc(C(=O)Nc9cc(C(=O)NCCC(=O)Nc%10cn(C)c(C(=O)Nc%11ccc%12[nH]c(C(=O)N%13CC(CCl)c%14c%13cc(O)c%13ccccc%14%13)cc%12c%11)n%10)n(C)c9)n(C)c8)n(C)c7)n6)n5)n(C)c4)n(C)c3)n2)n1 (stereo not shown) [CCC07-04]
- expression of CTLA-4 (CTLA4 gene [3]; 6 hours): elevated
- state of the cells (cell death suggested) (CTLA4 gene [3]; [5]): All the cells floated
- expression of Pd-11 (mouse Pd-11 gene; 100-500 nM, 6 hours): statistically significantly decreased
- state of the cells (cell death suggested) (mouse Pd-11 gene; [5]): All the mouse B16F1 cells floated

Compound: c1ccc2[nH]ccc2c1 [Indole]
- logPow [1]: 2.14
- logPow [4]: 2.14

Compound: ipilimumab: anti-CTLA-4 antibody
- objective response rate (ORR) (malignant melanoma): 11%

Compound: CCOC(C)=O [Ethyl acetate]
- logPow [1]: 0.73
